Molecular target: T1, JAK3 (Homo sapiens, UniProt P52333)
T1 sequence (P52333 1-1124): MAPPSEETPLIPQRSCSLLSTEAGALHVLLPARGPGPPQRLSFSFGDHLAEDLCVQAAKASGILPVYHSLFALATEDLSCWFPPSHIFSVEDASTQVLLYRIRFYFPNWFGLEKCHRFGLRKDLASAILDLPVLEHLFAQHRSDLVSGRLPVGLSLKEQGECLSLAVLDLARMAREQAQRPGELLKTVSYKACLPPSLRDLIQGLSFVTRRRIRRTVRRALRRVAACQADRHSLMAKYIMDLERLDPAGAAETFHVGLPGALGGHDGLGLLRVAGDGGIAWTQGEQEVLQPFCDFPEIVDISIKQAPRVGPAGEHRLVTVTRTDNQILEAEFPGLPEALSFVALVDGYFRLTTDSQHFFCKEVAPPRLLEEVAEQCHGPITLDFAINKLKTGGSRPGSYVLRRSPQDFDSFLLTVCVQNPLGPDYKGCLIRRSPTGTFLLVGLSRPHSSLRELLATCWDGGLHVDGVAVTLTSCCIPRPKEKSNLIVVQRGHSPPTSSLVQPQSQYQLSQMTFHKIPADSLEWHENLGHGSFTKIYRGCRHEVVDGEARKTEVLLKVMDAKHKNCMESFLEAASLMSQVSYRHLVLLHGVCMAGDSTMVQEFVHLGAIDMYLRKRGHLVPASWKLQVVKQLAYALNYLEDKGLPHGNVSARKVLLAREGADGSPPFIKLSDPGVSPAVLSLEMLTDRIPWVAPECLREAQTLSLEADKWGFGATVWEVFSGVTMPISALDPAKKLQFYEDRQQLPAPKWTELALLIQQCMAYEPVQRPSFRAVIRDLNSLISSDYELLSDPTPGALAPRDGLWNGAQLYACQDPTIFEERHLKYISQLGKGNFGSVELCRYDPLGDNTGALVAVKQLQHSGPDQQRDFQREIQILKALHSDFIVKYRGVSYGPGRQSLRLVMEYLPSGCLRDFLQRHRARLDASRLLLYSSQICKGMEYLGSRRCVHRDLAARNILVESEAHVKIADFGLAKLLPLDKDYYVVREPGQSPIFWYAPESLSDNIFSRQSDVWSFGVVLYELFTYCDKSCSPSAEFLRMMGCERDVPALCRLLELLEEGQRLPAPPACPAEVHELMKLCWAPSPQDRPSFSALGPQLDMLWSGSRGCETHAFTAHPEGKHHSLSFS
Assay: JAK3 Inhibition Assay (33P incorporation into poly(Glu)4Tyr)
Format: biochemical
Conditions: 1 nM JAK3, 5 μM ATP, 1 μM poly(Glu)4Tyr, 25° C.
Outline: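 Run at 25°C for 20 min with 1 nM enzyme in pH 7.4 HEPES buffer with MgCl2, DTT, NaCl and BSA. Final substrates were 5 μM ATP (33P-labelled) and 1 μM poly(Glu)4Tyr. Stopped with TCA, filtered, and 33P incorporation counted by scintillation.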

Ki: 1 to 10 µM
Structure (SMILES): CC(C)[C@@H](Nc1nc(-c2ccc3nccnc3c2)ncc1F)C(=O)NCC(F)(F)F [Compound 168]
